According to publication PMC3562233 (PLoS ONE, 2013):

How the values were obtained:
V27A M2 [1] = target: T1, V27A M2 (Influenza A virus, UniProt P0DOF5, V27A); assay type: cell-based, influenza A virus (Udorn strain)
S31N M2 [2] = target: T2, S31N M2 (Influenza A virus, UniProt P0DOF5, S31N); assay type: cell-based, influenza A virus (Udorn strain)
V27A M2 [3] = target: T1, V27A M2; assay type: cell-based
S31N M2 [4] = target: T2, S31N M2; assay type: cell-based

## NC12CC3CC(CC(C3)C1)C2 [Amantadine, reference compound]
V27A M2 [1]
  activity against V27A mutant in the yeast assay: did not increase the growth
S31N M2 [2]
  activity against S31N mutant in the yeast assay: did not increase the growth

## O=[N+]([O-])c1ccc(CNC23CC4CC(CC(C4)C2)C3)cc1 [Compound 4, 1-adamantyl (4-nitrobenzyl)amine]
V27A M2 [3]
  % inhibition at 100 µM in TEVC V27A: 9.7 ± 0.3%
S31N M2 [4]
  % inhibition at 100 µM in TEVC S31N: 15.9 ± 0.2%

## CC1(C)C2CCC1(C)C(N1CCNCC1)C2.Cl.Cl (stereo not drawn) [Compound 16, 1-(1,7,7-trimethylbicyclo[2.2.1]hept-2-yl)piperazine dihydrochloride]
S31N M2 [2]
  activity against S31N mutant in the yeast assay: inactive

## NC1CCC2(CC1)C1CC3CC(C1)CC2C3 (stereo not drawn) [spiroadamantane amine]
V27A M2 [1]
  concentration that clearly increased growth of the V27A strain: ≥ 0.01 µM
